Test results published in paper PMC12023779, “Characterization, thermostable mechanism, and molecular docking of a novel glucose-tolerant β-glucosidase/β-galactosidase from the GH1 family isolated from Rehai hot spring” (Frontiers in Microbiology, 2025).

Legend:
Y50Bg4 [1] = tested on: T1, Y50Bg4; test: glucose oxidase-peroxidase assay, Michaelis-Menten non-linear fit; assay type: biochemical, uncultured bacterium; details: sodium citrate buffer pH 6.0, 60°C; 0-20 mg/mL substrate
T1 construct: expressed in E. coli DH5alpha, Ni-NTA purified; primers encode MKIDGGLKC... at N-end and ...EIIKKYKE at C-end
Excerpt: glucose oxidase-peroxidase assay, Michaelis-Menten non-linear fit on Y50Bg4

Y50Bg4 [2] = tested on: T1, Y50Bg4; test: p-nitrophenol release at […] nm, Michaelis-Menten non-linear fit; assay type: biochemical, uncultured bacterium; details: sodium citrate buffer pH 6.0, 60°C; 0-2 mM substrate

Row | Km (Y50Bg4 [1]) [mg/mL] | Km (Y50Bg4 [2]) [µM] | Compound
1 | 4.69 | – | OC[C@H]1O[C@@H](O[C@H]2[C@H](O)[C@@H](O)C(O)O[C@@H]2CO)[C@H](O)[C@@H](O)[C@@H]1O (some centres unmarked) [cellobiose]
2 | – | 530 | O=[N+]([O-])c1ccc(O[C@@H]2O[C@H](CO)[C@@H](O)[C@H](O)[C@H]2O)cc1 [p-nitrophenyl-β-D-glucopyranoside]
